Results reported in US7897371B2, “Activation of mutated RAC-PK” (Novartis AG, priority 1995, dated 2011).
Where two headings read alike, the source gives them in different places.

What was measured:
[1] = target: T1, MAPKAP-K1β (Oryctolagus cuniculus, UniProt A0A5F9C4L9); experiment: Protein kinase inhibition assay, MAPKAP-K1β (peptide […] substrate); format: biochemical, rabbit
T1 construct: from tissue; host or cells: rabbit skeletal muscle

[2] = target: T2, p70 S6 kinase (Rattus norvegicus, UniProt P67999); experiment: Protein kinase inhibition assay, p70 S6 kinase (peptide […] substrate); format: biochemical
T2 construct: from tissue; host or cells: rat liver

[3] = target: p42 MAP kinase (Homo sapiens, UniProt P28482); experiment: Protein kinase inhibition assay, p42 MAP kinase (MBP substrate); format: biochemical
Protocol: (§1) After incubation on ice for 10 minutes, the reaction was started by the addition of 10µL of 50 mM magnesium acetate and 0.5 mM [.gamma^32P]ATP (100-200 cpm/pmol). For the assay of mixed isoforms of PKC 20µM diacylglycerol, 0.5 mM CaCl.sub2 and 100µM phosphatidylsene were also present in the incubations. The assays were carried out for 15 minutes at 30° C., then terminated and analyzed as described. See Alessi et al., Methods Enzymol, Vol. 255, pp. 279-290 (1995). One unit of activity was that amount of enzyme that catalyzed the phosphorylation of 1 nmol os substrate in 1 minute. The final concentration of DMSO in each assay was 1% (by vol). […] Mixed isoforms of PKC were assayed using histone H1 as substrate, while MAPKAP-K11 and p70 S6 kinase were assayed using the peptide […] (SEQ ID NO: 14). See Leighton et al. (1995), supra. PK B was assayed with the peptide […] [9] (SEQ ID NO: 5) and MAPKAP-K2 was assayed with the peptide […] (SEQ ID NO: 27). See Stokoe, Caudwell, Cohen and Cohen, Biochem J, Vol. 296, Pt. 3, pp. 843-849 (1993). p42 MAP kinase was assayed using MBP, and MAPKK-1 and c-Raf1 were assayed as described in Alessi et al., Methods Enzymol (1995), supra.

[4] = target: c-Raf1 (Homo sapiens, UniProt P04049); experiment: Protein kinase inhibition assay, c-Raf1; format: biochemical
Protocol: as §1

[5] = target: mixed isoforms of PKC; experiment: Protein kinase inhibition assay, mixed isoforms of PKC (histone H1 substrate); format: biochemical
Protocol: as §1

[6] = target: PK B (Homo sapiens, UniProt P31749); experiment: Protein kinase inhibition assay, PK B (peptide […] substrate); format: biochemical
Protocol: as §1

[7] = target: MAPKK-1 (Homo sapiens, UniProt Q02750); experiment: Protein kinase inhibition assay, MAPKK-1; format: biochemical
Protocol: as §1

[8] = test system: MAPKAP kinase-1; experiment: MAPKAP kinase-1 activation by insulin in L6 myotubes; format: cell-based
From the text: (d)—As (c) except that MAPKAP kinase-1 was immunoprecipitated from the lysates and assayed with S6 peptide (filled circles).

[9] = test system: RAC-PKα
[10] = test system: GSK3; format: cell-based
[11] = target: T3, MAPKAP-K2 (Homo sapiens, UniProt P49137); experiment: Protein kinase inhibition assay, MAPKAP-K2 (peptide […] substrate); format: biochemical
T3 construct: cDNA encoding residues 46-400 of human MAPKAP kinase-2 was expressed in E. coli as a GST fusion protein; GST; made in house; host or cells: E. coli
Protocol: as §1

[12] = test system: RAC-PKα; format: cell-based, human
[13] = test system: MAPKAP kinase-2; format: cell-based
[14] = target: T4, RAC-PKα (Homo sapiens, UniProt P31749, T308A); format: biochemical; conditions: COS-1 cells
T4 construct: made in house; host or cells: COS-1 cells (DEAE-dextran transfection, serum-starved), immunoprecipitated with 12CA5 antibody

[15] = test system: GSK3β; format: cell-based, human
[16] = test system: RAC-PKα; format: biochemical, human; conditions: expressed in COS-1 cells, without MAPKAP kinase-2
[17] = test system: RAC-PKα; conditions: 293 cells
[18] = test system: p70s6k-Myc; experiment: Transient cotransfection of RAC-PKα with p70s6k-Myc; format: cell-based; conditions: coexpression
Protocol: To examine this possibility, the regulation of p70^[…] is investigated in a transient cotransfection assay using human 293 cells. RAC-PKα constructs are prepared by ligating the RAC-PKα cDNA [see Jones et al. (1991), supra] in-frame to the initiator methionine, in the mammalian expression vector pECE. The construct is also subcloned into a CMV promoter-driven expression vector. The construct is confirmed by restriction analysis and sequencing. Constructs expressing Myc-tagged p70^[…] are obtained from Dr. G. Thomas, […] Institut, Basel, Switzerland. Constructs are transfected into COS cells using standard procedures.

T1 sequence (A0A5F9C4L9 1-740): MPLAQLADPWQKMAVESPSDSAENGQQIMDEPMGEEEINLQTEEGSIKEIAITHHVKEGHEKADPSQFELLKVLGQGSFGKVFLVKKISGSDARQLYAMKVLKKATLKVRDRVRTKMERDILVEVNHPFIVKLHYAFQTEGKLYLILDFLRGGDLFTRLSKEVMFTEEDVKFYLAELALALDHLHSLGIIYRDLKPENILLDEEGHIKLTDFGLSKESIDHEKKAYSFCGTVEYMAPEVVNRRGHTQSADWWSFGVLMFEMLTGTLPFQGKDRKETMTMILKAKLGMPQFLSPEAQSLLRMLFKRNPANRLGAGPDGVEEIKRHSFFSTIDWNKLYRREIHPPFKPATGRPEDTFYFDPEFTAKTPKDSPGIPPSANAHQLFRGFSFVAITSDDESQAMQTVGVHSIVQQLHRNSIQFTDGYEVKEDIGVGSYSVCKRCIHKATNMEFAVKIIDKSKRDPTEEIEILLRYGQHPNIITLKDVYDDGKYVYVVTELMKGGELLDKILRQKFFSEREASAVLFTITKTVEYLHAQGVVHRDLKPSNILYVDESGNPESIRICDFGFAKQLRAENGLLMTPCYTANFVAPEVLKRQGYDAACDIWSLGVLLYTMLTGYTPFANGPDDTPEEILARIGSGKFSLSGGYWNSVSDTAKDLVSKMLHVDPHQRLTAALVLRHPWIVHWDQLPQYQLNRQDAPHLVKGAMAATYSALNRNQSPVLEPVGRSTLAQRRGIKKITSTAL
GSK3β, sequence (P49841 whole entry): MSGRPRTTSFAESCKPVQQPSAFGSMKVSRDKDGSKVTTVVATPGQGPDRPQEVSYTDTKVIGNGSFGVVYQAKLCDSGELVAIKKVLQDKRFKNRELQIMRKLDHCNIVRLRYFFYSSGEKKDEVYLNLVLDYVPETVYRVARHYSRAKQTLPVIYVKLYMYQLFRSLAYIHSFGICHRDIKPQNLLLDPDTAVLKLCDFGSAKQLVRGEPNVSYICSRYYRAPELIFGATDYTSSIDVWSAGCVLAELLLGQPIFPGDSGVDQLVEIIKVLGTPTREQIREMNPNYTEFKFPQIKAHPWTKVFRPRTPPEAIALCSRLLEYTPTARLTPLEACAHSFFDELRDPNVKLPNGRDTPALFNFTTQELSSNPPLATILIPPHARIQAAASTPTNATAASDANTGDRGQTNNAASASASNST
p42 MAP kinase, sequence (P28482 whole entry, canonical isoform): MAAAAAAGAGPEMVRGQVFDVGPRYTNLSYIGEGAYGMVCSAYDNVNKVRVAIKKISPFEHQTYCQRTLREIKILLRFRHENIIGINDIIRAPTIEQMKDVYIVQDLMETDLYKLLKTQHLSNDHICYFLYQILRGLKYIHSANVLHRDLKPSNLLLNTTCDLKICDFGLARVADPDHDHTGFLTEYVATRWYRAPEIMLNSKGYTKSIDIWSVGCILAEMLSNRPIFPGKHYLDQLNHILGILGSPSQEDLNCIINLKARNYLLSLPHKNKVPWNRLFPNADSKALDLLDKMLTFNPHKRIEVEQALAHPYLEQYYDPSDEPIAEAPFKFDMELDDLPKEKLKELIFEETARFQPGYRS
PK B, sequence (P31749 whole entry): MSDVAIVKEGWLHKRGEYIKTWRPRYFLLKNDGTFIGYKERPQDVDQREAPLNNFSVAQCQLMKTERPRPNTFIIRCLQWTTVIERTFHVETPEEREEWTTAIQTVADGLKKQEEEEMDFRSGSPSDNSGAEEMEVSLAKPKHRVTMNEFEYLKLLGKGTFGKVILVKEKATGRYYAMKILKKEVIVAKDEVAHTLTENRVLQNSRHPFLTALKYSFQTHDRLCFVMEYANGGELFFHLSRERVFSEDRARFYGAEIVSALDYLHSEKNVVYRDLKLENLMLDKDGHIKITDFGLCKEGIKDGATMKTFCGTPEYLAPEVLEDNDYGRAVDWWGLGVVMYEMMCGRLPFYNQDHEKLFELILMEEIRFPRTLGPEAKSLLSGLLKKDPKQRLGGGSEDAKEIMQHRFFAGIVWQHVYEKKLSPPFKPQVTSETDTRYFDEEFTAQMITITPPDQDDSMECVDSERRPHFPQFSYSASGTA
T2 sequence (P67999 24-525): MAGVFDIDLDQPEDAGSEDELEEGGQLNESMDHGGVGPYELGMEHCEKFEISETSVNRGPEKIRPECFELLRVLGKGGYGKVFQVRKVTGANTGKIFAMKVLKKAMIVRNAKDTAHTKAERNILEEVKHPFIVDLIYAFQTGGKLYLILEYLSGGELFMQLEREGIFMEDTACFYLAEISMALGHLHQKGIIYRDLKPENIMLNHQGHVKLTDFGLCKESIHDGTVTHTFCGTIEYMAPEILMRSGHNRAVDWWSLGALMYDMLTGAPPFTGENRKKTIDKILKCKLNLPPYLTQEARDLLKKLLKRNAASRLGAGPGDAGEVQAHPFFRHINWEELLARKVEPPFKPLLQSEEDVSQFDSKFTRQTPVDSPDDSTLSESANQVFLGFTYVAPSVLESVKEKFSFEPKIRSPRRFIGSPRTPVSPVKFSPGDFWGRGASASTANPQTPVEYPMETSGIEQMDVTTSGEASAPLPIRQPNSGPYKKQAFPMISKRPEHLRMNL
c-Raf1, sequence (P04049 whole entry): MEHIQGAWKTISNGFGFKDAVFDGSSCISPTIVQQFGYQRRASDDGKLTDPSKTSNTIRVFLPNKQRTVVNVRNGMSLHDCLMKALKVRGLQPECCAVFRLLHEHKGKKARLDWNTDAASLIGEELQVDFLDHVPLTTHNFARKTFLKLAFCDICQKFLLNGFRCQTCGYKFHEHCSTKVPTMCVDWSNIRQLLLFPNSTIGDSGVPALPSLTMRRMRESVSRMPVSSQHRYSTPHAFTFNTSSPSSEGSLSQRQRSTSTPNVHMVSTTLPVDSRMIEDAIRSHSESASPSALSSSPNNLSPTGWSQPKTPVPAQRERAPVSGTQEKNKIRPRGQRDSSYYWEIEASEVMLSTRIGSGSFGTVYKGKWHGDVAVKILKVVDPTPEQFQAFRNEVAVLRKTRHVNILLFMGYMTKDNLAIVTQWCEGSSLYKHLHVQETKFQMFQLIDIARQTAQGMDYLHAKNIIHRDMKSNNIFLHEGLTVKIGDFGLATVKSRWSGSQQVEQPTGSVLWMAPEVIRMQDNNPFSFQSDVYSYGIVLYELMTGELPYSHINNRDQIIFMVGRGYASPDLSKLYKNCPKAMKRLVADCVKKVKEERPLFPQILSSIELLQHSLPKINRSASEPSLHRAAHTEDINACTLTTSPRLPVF
MAPKK-1, sequence (Q02750 whole entry, species assumed): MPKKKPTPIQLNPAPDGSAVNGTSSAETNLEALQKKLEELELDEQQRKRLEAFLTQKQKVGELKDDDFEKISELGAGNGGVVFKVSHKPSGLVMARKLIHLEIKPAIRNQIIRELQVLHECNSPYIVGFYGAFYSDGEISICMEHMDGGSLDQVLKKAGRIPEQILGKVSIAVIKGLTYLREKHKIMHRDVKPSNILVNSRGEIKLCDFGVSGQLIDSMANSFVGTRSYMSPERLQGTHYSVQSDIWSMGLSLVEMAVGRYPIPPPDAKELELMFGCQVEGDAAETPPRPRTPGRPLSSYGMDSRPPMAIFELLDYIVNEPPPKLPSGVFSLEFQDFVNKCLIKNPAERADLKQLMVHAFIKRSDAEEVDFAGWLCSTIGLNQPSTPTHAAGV
T3 sequence (P49137 46-400): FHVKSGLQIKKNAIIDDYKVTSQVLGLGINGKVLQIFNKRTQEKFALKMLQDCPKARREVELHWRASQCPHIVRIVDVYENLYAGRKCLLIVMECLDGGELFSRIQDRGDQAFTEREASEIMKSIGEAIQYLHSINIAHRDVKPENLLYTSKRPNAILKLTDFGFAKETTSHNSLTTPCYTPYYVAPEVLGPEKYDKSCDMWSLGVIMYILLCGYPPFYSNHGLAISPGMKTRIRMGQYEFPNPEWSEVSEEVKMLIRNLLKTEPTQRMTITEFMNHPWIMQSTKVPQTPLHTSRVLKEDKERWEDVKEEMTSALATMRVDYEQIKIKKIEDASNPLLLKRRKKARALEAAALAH
T4 sequence (P31749 whole entry T308A): as the sequence (P31749 whole entry) above, with T308A counted along it

## CN(C)CCCn1cc(C2=C(c3c[nH]c4ccccc34)C(=O)NC2=O)c2ccccc21 [GF 109203X]
[1]; read-out: IC50, MAPKAP-K1 B
  IC50: 50 nM
[2]
  IC50: 100 nM
[3]
  Inhibition of p42 MAP kinase in vitro: without inhibiting
[4]
  Inhibition of c-Raf1 in vitro: without inhibiting
[5]
  IC50: 30 nM
[6]
  Inhibition of PK B in vitro: without inhibiting
[7]
  Inhibition of MAPKK-1 in vitro: without inhibiting

## COc1cccc(-c2cc(=O)c3ccccc3o2)c1N [PD 98059]
[8]
  Effect on activation of MAPKAP kinase-1: prevented
[9]
  Effect on insulin activation of RAC-PK: essentially unaffected
[10]
  Effect on inhibition of GSK3 by insulin: unaffected

## Cn1cc(C2=C(c3cn(CCCSC(=N)N)c4ccccc34)C(=O)NC2=O)c2ccccc21 [Ro 318220]
[1]; read-out: IC50, MAPKAP-K1β
  IC50: 3 nM
[2]
  IC50: 15 nM
[3]
  Inhibition of p42 MAP kinase in vitro: not inhibited significantly
[4]
  Inhibition of c-Raf1 in vitro: not inhibited significantly
[11]
  Inhibition of MAPKAP-K2 in vitro: not inhibited significantly
[5]
  IC50: 5 nM
[6]
  IC50: 1000 nM
[7]
  Inhibition of MAPKK-1 in vitro: not inhibited significantly

## C[S+]([O-])c1ccc(-c2nc(-c3ccncc3)c(-c3ccc(F)cc3)[nH]2)cc1 (stereo not drawn) [SB 203580]
[12]
  Effect on activation of RAC-PKα by insulin or IGF-1: had no effect
[13]
  Effect on activation of MAPKAP kinase-2: prevented

## HA-308A RAC-PKα: HA-tagged RAC-PKα with Thr308 changed to Ala
[14]
  Activity as percentage of unstimulated WT enzyme: about 40%

## HA-308D/473D RAC-PK: RAC-PKα with both Thr308 and Ser473 mutated to Asp, constitutively active
[15]
  Increase in GSK3 activity on PP2A treatment: 85%
[16]
  Activity relative to unstimulated (dephosphorylated) WT HA-RAC-PKα: 18 fold
[17]
  Activity relative to WT HA-RAC-PKα in unstimulated cells: 40 fold

B1: RAC-PKα: human RAC protein kinase α, wild type, SEQ ID NO. 3 (protein)
chain: MNDVAIVKEGWLHKRGEYIKTWRPRYFLLKNDGTFIGYKERPQDVEQRESPLNNFSVAQCQLMKTERPRPNTFIIRCLQWTTVIERTFHVETPEEREEWTTAIQTVADGLKRQEEETMDFRSGSPSDNSGAEEMEVALAKPKHRVTMNEFEYLKLLGKGTFGKVILVKEKATGRYYAMKILKKEVIVAKDEVAHTLTENRVLQNSRHPFLTALKYSFQTHDRLCFVMEYANGGELFFHLSRERVFSEDRARFYGAEIVSALDYLHSEKNVVYRDLKLENLMLDKDGHIKITDFGLCKEGIKDGATMKTFCGTPEYLAPEVLEDNDYGRAVDWWGLGVVMYEMMCGRLPFYNQDHEKLFELILMEEIRFPRTLGPEAKSLLSGLLKKDPTQRLGGGSEDAKEIMQHRFFANIVWQDVYEKKLSPPFKPQVTSETDTRYFDEEFTAQMITITPPDQDDSMECVDSERRPHFPQFSYSASGTA
[15]
  Increase in GSK3 activity on PP2A treatment: 68%
[18]
  Increase of basal p70s6k-Myc activity: 3.5 fold
  Increase of insulin-stimulated p70s6k-Myc activity: 3 fold
